Tests used:
Assay type in all cases: in vivo
[1] = system: common house mosquito (Culex pipiens pallens); experiment: Test Method 12: common house mosquito larvae in diluted solution; details: 3.5 ppm; final instar larvae; 1 day; 25 °C
Description: Each test compound is formulated according to the method mentioned in Formulation Example 1 to obtain each formulation, and water is added thereto to prepare a diluted solution containing a prescribed concentration of each test compound. […]
The test was carried out by making the prescribed concentration 3.5 ppm and using the following present compounds as a test compound according to the test method 12.

[2] = system: diamondback moth (Plutella xylostella); experiment: Test Method 10: diamondback moth on sprayed cabbage, 3rd instar larvae (Formulation Example 5); details: spray 20 mL/seedling, 5 days, 25 °C
Description: (§1) Each test compound is formulated according to the method mentioned in Formulation Example 5 to obtain each formulation, and water containing 0.03% by volume of Shindaine (registered trademark) is added thereto to prepare a diluted solution containing a prescribed concentration of each test compound.
(§2) Each of the diluted solutions is sprayed over cabbage (Brassicae oleracea) seedlings (on the developmental stage of the third to fourth true leaf) planted in a container in a ratio of 20 mL/seedling. Thereafter, ten 3rd instar larvae of diamondback moth (Plutella xylostella) are released into the container. After 5 days, the number of the surviving insects is counted, and the mortality of insects is calculated by the following equation.
(§3) Mortality (%)=(1−Number of surviving insects/10)×100
The test was carried out by making the prescribed concentration 200 ppm and using the following present compounds as a test compound according to the test method 10.
The test was carried out by making the prescribed concentration 50 ppm and using the following present compounds as a test compound according to the test method 10.

[3] = system: German cockroach (Blattella germanica); experiment: Test Method 6: German cockroach, coated container contact; details: coating amount 40 mg/m^2; male adults; 3 days; 25 °C
Description: An acetone solution prepared by making the concentration of the test compound 800 ppm is poured into a 50 mL container, and the inner face of the container is uniformly coated with the test compound so as to make the coating amount of 40 mg/m^2, followed by drying.
Five German cockroach (Blattella germanica) male adults are released into the container, and the container is then covered with a lid. After the prescribed time is elapsed, the state of the German cockroach are examined. The mortality of insects is calculated by the following equation.
(§4) Mortality (%)=(Number of dead insects/Number of tested insects)×100
The test was carried out by making the prescribed elapsed time 3 days and using the following present compounds as a test compound according to the test method 6.

[4] = system: cotton aphids (Aphis gossypii); experiment: Test Method 1: cotton aphid foliar spray, cucumber seedlings (Formulation Example 1); details: 500 ppm; spray 10 mL/seedling; 5 days after spraying; 25 °C
Description: (§5) Each test compound is formulated according to the method mentioned in Formulation Example 1 to obtain each formulation, and water containing 0.03% by volume of Shindaine (registered trademark) is added thereto to prepare a diluted solution containing a prescribed concentration of each test compound.
(§6) Approximately 30 cotton aphids (Aphis gossypii) (all stages of life) are released onto cucumber (Cucumis sativus) seedlings (on the developmental stage of the second true leaf) planted in a container. After 1 day, each of the diluted solutions is sprayed over the seedlings in a ratio of 10 mL/seedling. After additional 5 days, the number of the surviving insects is examined and the control value is calculated by the following equation.
(§7) Control value (%)={1−(Cb×Tai)/(Cai×Tb)}×100 • where symbols in the equation represent the following meanings: • Cb: Number of test insects in non-treated area; • Cai: Number of surviving insects at the time of the investigation in non-treated area; • Tb: Number of test insects in treated area; and • Tai: Number of surviving insects at the time of the investigation in treated area.
(§8) Here, the “non-treated area” represents an area where the same treatment procedure as that of the treated area is carried out except for not using each test compound.
The test was carried out by making the prescribed concentration 500 ppm and using the following present compounds as a test compound according to the test method 1.

[5] = system: common cutworm (Spodoptera litura); experiment: Test Method 9: common cutworm on sprayed cabbage, 3rd instar larvae (Formulation Example 5); details: 200 ppm, spray 20 mL/seedling, 6 days, 25 °C
Description: as §1
as §2, with “common cutworm (Spodoptera litura)” for “diamondback moth (Plutella xylostella)”, “6” for “5”, “counted” for “counted,”
as §3
The test was carried out by making the prescribed concentration 200 ppm and using the following present compounds as a test compound according to the test method 9.
The test is carried out by making the prescribed concentration 50 ppm and using the following present compounds as a test compound according to the test method 9. As a result of the test, it is possible to confirm an insecticidal effect on common cutworm (Spodoptera litura).

[6] = system: common cutworm (Spodoptera litura); experiment: Test Method 3: common cutworm on sprayed cabbage, 2nd instar larvae; details: 500 ppm, spray 20 mL/seedling, 5 days, 25 °C
Description: as §5
(§9) Each of the diluted solutions is sprayed over cabbage (Brassicae oleracea) seedlings (on the developmental stage of the second to third true leaf) planted in a container in a ratio of 20 mL/seedling. Thereafter, the stem and leaf of the seedlings are cut out, and placed in a container lined with a filter paper. Five 2nd instar larvae of common cutworm (Spodoptera litura) are released into the container. After 5 days, the number of the surviving insects is counted, and the mortality of insects is calculated by the following equation.
(§10) Mortality (%)=(1−Number of surviving insects/5)×100
The test was carried out by making the prescribed concentration 500 ppm and using the following present compounds as a test compound according to the test method 3.

[7] = system: houseflies (Musca domestica); experiment: Test Method 8: housefly, coated container contact; details: coating amount 40 mg/m^2; adult males; 1 day; 25 °C
Description: An acetone solution prepared by making the concentration of the test compound 800 ppm is poured into a 20 mL container, and the inner face of the container is uniformly coated with the test compound so as to make the coating amount of 40 mg/m^2, followed by drying.
Five adult male houseflies (Musca domestica) are released into the container, and the container is then covered with a lid. After the prescribed time is elapsed, the state of the houseflies are examined. The mortality of insects is calculated by the following equation.
as §4
The test was carried out by making the prescribed elapsed time 1 day and using the following present compounds as a test compound according to the test method 8.

[8] = system: diamondback moth (Plutella xylostella); experiment: Test Example 4 (test method 4): diamondback moth on sprayed cabbage, 2nd instar larvae; details: 500 ppm, spray 20 mL/seedling, 5 days, 25 °C
Description: as §5
as §9, with “diamondback moth (Plutella xylostella)” for “common cutworm (Spodoptera litura)”
as §10
The test was carried out by making the prescribed concentration 500 ppm and using the following present compounds as a test compound according to the test method 4.

[9] = system: western corn rootworm (Diabrotica virgifera virgifera); experiment: Test Method 5: western corn rootworm on immersed corn seedlings; details: 200 ppm; seedlings immersed 30 seconds; 2nd instar larvae; 5 days; 25 °C
Description: Each test compound is dissolved in 50 μL of a mixed solution of polyoxyethylene sorbitan monococoate and acetone (at a volume ratio of 5:95) per 1 mg of the test compound. Water containing 0.03% by volume of Shindaine (registered trademark) is added thereto to prepare a diluted solution containing a prescribed concentration of each test compound.
Young seedlings of corns (Zea mays) are immersed in each of the diluted solutions for 30 seconds. Thereafter, two seedlings are placed in a petri dish (diameter: 90 mm), and ten 2nd instar larvae of western corn rootworm (Diabrotica virgifera virgifera) are released into the dish. After 5 days, the number of the dead insects is counted, and the mortality of insects is calculated by the following equation.
Mortality (%)=(1−Number of dead insects/10)×100
The test was carried out by making the prescribed concentration 200 ppm and using the following present compounds as a test compound according to the test method 5.

[10] = system: cotton aphids (Aphis gossypii); experiment: Test Method 11: cotton aphid foliar spray, cucumber seedlings (Formulation Example 5); details: spray 10 mL/seedling, 5 days after spraying, 25 °C
Description: as §1
as §6, with “thirty” for “30”
as §7, §8
The test was carried out by making the prescribed concentration 200 ppm and using the following present compounds as a test compound according to the test method 11.
The test was carried out by making the prescribed concentration 50 ppm and using the following present compounds as a test compound according to the test method 11.

SMILES: CNS(=O)(=O)c1c(-c2cnc(OCC(F)(F)C(F)(F)F)cn2)nc2ccc(Br)cn12 [compound 1]
- mortality [1]: ≥ 90%
- mortality ([2]; 50 ppm): ≥ 80%
- mortality ([2]; 200 ppm): ≥ 80%
- mortality of insects [3]: ≥ 80%
- control value [4]: ≥ 90%
- mortality [5]: ≥ 80%
- mortality [6]: ≥ 80%
- mortality of insects [7]: ≥ 80%
- mortality [8]: ≥ 80%
- mortality [9]: ≥ 80%
- control value ([10]; 50 ppm): ≥ 90%
- control value ([10]; 200 ppm): ≥ 90%

SMILES: CCNS(=O)(=O)c1c(-c2cnc(OCC(F)(F)C(F)(F)F)cn2)nc2ccc(Br)cn12 [compound 2]
- mortality [1]: ≥ 90%
- mortality ([2]; 50 ppm): ≥ 80%
- mortality ([2]; 200 ppm): ≥ 80%
- mortality of insects [3]: ≥ 80%
- control value [4]: ≥ 90%
- mortality [5]: ≥ 80%
- mortality [6]: ≥ 80%
- mortality of insects [7]: ≥ 80%
- mortality [8]: ≥ 80%
- mortality [9]: ≥ 80%
- control value ([10]; 50 ppm): ≥ 90%
- control value ([10]; 200 ppm): ≥ 90%

SMILES: CN(C)S(=O)(=O)c1c(-c2ccc(OCC(F)(F)C(F)F)nn2)nc2ccc(I)cn12 [compound 4]
- mortality ([2]; 50 ppm): ≥ 80%
- mortality ([2]; 200 ppm): ≥ 80%
- control value [4]: ≥ 90%
- mortality [5]: ≥ 80%
- mortality [6]: ≥ 80%
- mortality [8]: ≥ 80%

From patent publication US20260327222A1, “SULFONAMIDE COMPOUND AND HARMFUL-ARTHROPOD-CONTROLLING COMPOSITION CONTAINING SAME” (SUMITOMO CHEMICAL COMPANY, LIMITED, priority 2022, published 2026)
